Like-named read-outs stand apart in the source and are kept apart here.
Key:
[1] = Acute toxicity, minimum lethal dose (oral, mice); type: in vivo; settings: male dd-mice, mortality observed for seven days
Procedure: The compounds were orally administrated to male dd-mice weighing 20±1 g. Minimum lethal dose (MLD) was determined by observing the mortality for seven days after the administration.

[2] = Diuretic activity (oral, urine collected for 6 hours); type: in vivo, rat (Wistar male rats); settings: Rattus norvegicus, rats; for response vs control in vivo at 1.6 mg/kg: 1.6 mg/kg oral; for response vs control in vivo at 25 mg/kg: 25 mg/kg oral; for response vs control in vivo at 6.25 mg/kg: 6.25 mg/kg oral
Procedure: Wistar male rats weighing 150 to 300 g were used after they were fasted for 18 hours. A test compound or saline (control) was orally administered to rats and urine was collected for 6 hours. The test was performed using 3 groups per the test compound, and each group consists of 3 animals. The urine was metered by a measuring cylinder and electrolytes (Na^+ and K^+) in the urine were assayed with a flame photometer (model […] manufactured by Hitachi Ltd.). Parameters in Table 3 are all expressed by relative value for control.

[3] = test system: Glycerol-induced Renal Deficient Model; assay: Renal protecting activity (glycerol-induced renal deficient model): serum creatinine and urea nitrogen; type: in vivo, rat (Wistar male rats); settings: 10 mg/kg intraperitoneal, rats, 24 hours after glycerol injection, own control beside each compound; for Creatinine in serum, glycerol treated, test compound administrated: normal control 0.50; for Urea nitrogen in serum, glycerol treated, test compound administrated: normal control 15.2
Procedure: It is well known that subcutaneous or intramuscular administration of glycerol to rat induce acute renal insufficiency characterized by renal tubular disturbance [Can J. Physiol.
Wistar male rats (fasted both food and water for 18 hours) were used. A test compound or saline (control) was intraperitoneally administered (dose: 10 mg/kg) to rats. After 30 minutes rats were anesthesized with ether and the back skin was picked up and 0.8 ml/100 g of 50% glycerol was subcutaneously administered. 24 hours after the glycerol injection, the rats were anesthesized with ether and 5 ml of the blood was collected from the descending aorta. To obtain the serum, after allowing it to stand for 30 minutes or longer, the blood sample was centrifuged at 3000 rpm for 10 minutes. Creatinine in the serum sample was determined using autoanalyzer (AU510, Olympus) or clinical analysis kit of creatinine (Creatinine Test Wako; by Wako Pure Chemical Ind., Japan). Urea nitrogen in the serum was determined using autoanalyzer (AU510; made by Olympus Optical Co., Ltd, Japan) or clinical analysis kit of urea nitrogen (Urea nitrogen test wako; by Wako Pure Chemical Ind., Japan).

trachea = assay: Passive Schultz-Dale reaction (bronchodilatory effects), relaxation of sensitized trachea strips; design: species or system guinea pig (Hartley male); settings: Cavia porcellus; sensitized guinea pig trachea, EWA 1 μg/ml, 37° C.; read-out: Passive S-D reaction IC50 (concentration of 50% relaxation rate)
Procedure: Guinea pigs were passively sensitized as follows. […] After 24 hours, the guinea pigs were stunned and exsanguinated, and then trachea was excised. The zig-zag strips of the trachea were prepared by the method of Emmerson and Mackay [J. Pharm. […] After the contraction curves reached plateau the compounds were successively added in order to get cumulative concentration-relaxation curves.

[4] = relative value for control (1.00), read-out: Na+/K+
[5] = relative value for control, read-out: Excretion of K+
[6] = relative value for control, read-out: Excretion of Na+
[7] = relative value for control, read-out: Urine volume

## CCCN1C(=O)N2C(=NCC2c2ccccc2)c2[nH]c(C3CCCC3)nc21 (stereo not drawn) [11 Sa]
[1]
  Minimum lethal dose (MLD): > 300 mg/kg

## CCCN1C(=O)N2CC(C)N=C2c2[nH]c(C3CCCC3)nc21 (stereo not drawn) [16 Sa]
[2]; [4]
  response vs control in vivo at 1.6 mg/kg: 152%
[2]; [5]
  response vs control in vivo at 1.6 mg/kg: 31%
[2]; [6]
  response vs control in vivo at 1.6 mg/kg: 99%
[2]; [7]
  response vs control in vivo at 1.6 mg/kg: 80%
[3]
  Creatinine in serum, glycerol treated, test compound administrated: 2.38 ± 0.24 mg/dL
  Urea nitrogen in serum, glycerol treated, test compound administrated: 80.9 ± 9.5 mg/dL

## O=c1c2[nH]cnc2nc2n1CCCC2 [Compound 24, 1,5,6,7,8,10-Hexahydropyrido[1,2-a]purin-10-one]
[1]
  Minimum lethal dose (MLD): > 300 mg/kg

## O=C1N2CCN=C2c2[nH]cnc2N1Cc1ccccc1 [9 Sa]
[1]
  Minimum lethal dose (MLD): > 300 mg/kg
[2]; [4]
  response vs control in vivo at 25 mg/kg: 126%
[2]; [5]
  response vs control in vivo at 25 mg/kg: 31%
[2]; [6]
  response vs control in vivo at 25 mg/kg: 65%
[2]; [7]
  response vs control in vivo at 25 mg/kg: 88%

## CCCC1CN2C(=O)N(CCC)c3nc(C4CCCC4)[nH]c3C2=N1 (stereo not drawn) [17 Sa]
[1]
  Minimum lethal dose (MLD): > 300 mg/kg
[2]; [4]
  response vs control in vivo at 6.25 mg/kg: 291%
[2]; [5]
  response vs control in vivo at 6.25 mg/kg: 18%
[2]; [6]
  response vs control in vivo at 6.25 mg/kg: 158%
[2]; [7]
  response vs control in vivo at 6.25 mg/kg: 138%
[3]
  Creatinine in serum, glycerol treated, test compound administrated: 2.35 ± 0.11 mg/dL
  Urea nitrogen in serum, glycerol treated, test compound administrated: 88.0 ± 4.9 mg/dL

## Cn1cnc2nc3n(c(=O)c21)CCCC3 [Compound 25, 1-Methyl-1,5,6,7,8,10-hexahydropyrido[1,2-a]purin-10-one]
[1]
  Minimum lethal dose (MLD): > 300 mg/kg

## NS(=O)(=O)c1cc(C(=O)O)c(NCc2ccco2)cc1Cl [Furosemide, reference compound]
[2]; [4]
  response vs control in vivo at 25 mg/kg: 107%
[2]; [7]
  response vs control in vivo at 25 mg/kg: 75%
[3]
  Creatinine in serum, glycerol treated, test compound administrated: 4.17 ± 0.41 mg/dL
  Urea nitrogen in serum, glycerol treated, test compound administrated: 150.3 ± 13.7 mg/dL

## CCCN1C(=O)N2C(=NCC2C)c2[nH]c(C3CCCC3)nc21 (stereo not drawn) [19 Sa]
[1]
  Minimum lethal dose (MLD): > 300 mg/kg
[2]; [4]
  response vs control in vivo at 25 mg/kg: 143%
[2]; [5]
  response vs control in vivo at 25 mg/kg: 31%
[2]; [6]
  response vs control in vivo at 25 mg/kg: 87%
[2]; [7]
  response vs control in vivo at 25 mg/kg: 111%

## CCCN1C(=O)N2CC(CC)N=C2c2[nH]c(C3CCCC3)nc21 (stereo not drawn) [Compound 8, 2-Cyclopentyl-8-ethyl-4-n-propyl-1,4,7,8-tetrahydro-5H-imidazo[2,1-i]purin-5-one]
[2]; [4]
  response vs control in vivo at 6.25 mg/kg: 145%
[2]; [5]
  response vs control in vivo at 6.25 mg/kg: 1%
[2]; [6]
  response vs control in vivo at 6.25 mg/kg: 46%
[2]; [7]
  response vs control in vivo at 6.25 mg/kg: 42%
[3]
  Creatinine in serum, glycerol treated, test compound administrated: 3.17 ± 0.32 mg/dL
  Urea nitrogen in serum, glycerol treated, test compound administrated: 121.2 ± 9.0 mg/dL
trachea
  IC50: 72 µM

## CCCN1C(=O)N2C(=NCC2CC)c2[nH]c(C3CCCC3)nc21 (stereo not drawn) [18 Sa]
[1]
  Minimum lethal dose (MLD): > 300 mg/kg
[2]; [4]
  response vs control in vivo at 25 mg/kg: 120%
[2]; [5]
  response vs control in vivo at 25 mg/kg: 37%
[2]; [6]
  response vs control in vivo at 25 mg/kg: 65%
[2]; [7]
  response vs control in vivo at 25 mg/kg: 92%
[3]
  Creatinine in serum, glycerol treated, test compound administrated: 2.85 ± 0.33 mg/dL
  Urea nitrogen in serum, glycerol treated, test compound administrated: 101.2 ± 9.9 mg/dL

## Cn1c(=O)c2[nH]cnc2n(C)c1=O [Aminophylline, reference compound]
[3]
  Creatinine in serum, glycerol treated, test compound administrated: 1.72 ± 0.07 mg/dL
  Urea nitrogen in serum, glycerol treated, test compound administrated: 30.6 ± 2.0 mg/dL

## CCCN1C(=O)N2CC(Cc3ccccc3)N=C2c2[nH]c(C3CCCC3)nc21 (stereo not drawn) [12 Sa]
[1]
  Minimum lethal dose (MLD): > 300 mg/kg
[2]; [4]
  response vs control in vivo at 1.6 mg/kg: 152%
[2]; [5]
  response vs control in vivo at 1.6 mg/kg: 33%
[2]; [6]
  response vs control in vivo at 1.6 mg/kg: 102%
[2]; [7]
  response vs control in vivo at 1.6 mg/kg: 159%

From US5270316A, “Condensed purine derivatives” (Kyowa Hakko Kogyo Co., Ltd., priority 1989, dated 1993)
